The source of these data is publication PMC4468025 (Biochemical pharmacology, 2015).

Assay [1] relates to anthrax toxin (PA + LF) cytotoxicity in RAW264.7 cells. The class given is cell-based, murine.
Assay [2] deals with HT1080 fibrosarcoma cells. Description: HT1080 cell migration assay. Particulars: for inhibition at 100 µM: Homo sapiens, HT-1080, 24 h, read-out: inhibition of HT1080 cell migration, 100 µM, 24 h. The class given is cell-based, human.
The subject of assay [3] is Pseudomonas aeruginosa exotoxin A cytotoxicity in CHO DG44 cells. Description: Pseudomonas exotoxin A assay. The class given is cell-based, Chinese hamster.
The target in the next assay is Soluble human furin (Homo sapiens, UniProt P09958). In words: Furin enzyme assay, IC50 and Ki determination.
In assay [4] the test system is Golgi furin in CHO-GRAPfurin cells. Description: SEAP activity assay in CHO-GRAPfurin cells. It counts as cell-based, Chinese hamster. The conditions noted are these: 100 µM, 20–24 h.
The next assay relates to PC1/3. Description: PC1/3 inhibition. The class given is biochemical. The conditions noted are these: for inhibition of PC1/3 (in words): 10 µM; for inhibition of PC1/3: 100 µM.
Another assay relates to PACE4. The conditions noted are these: cited from earlier work.
For the next assay, the target named is furin. The conditions noted are these: Ki values taken from the literature; cited from earlier work.
Another assay relates to PC5. Particulars: cited from earlier work.
Assay [5] concerns human fibrosarcoma HT1080 cells. Particulars: by inhibiting proMT1-MMP processing; cited from earlier work.
Another assay deals with skin tumor. The conditions noted are these: cited from earlier work.
Where [6] appears, read: concentration not stated in the sentence (10 and 100 µM tested).

“Also recorded” adds a separate entry of the source. Read-outs that look alike come from different tables or passages of the source.

Soluble human furin, sequence (P09958 108-715 limits assumed): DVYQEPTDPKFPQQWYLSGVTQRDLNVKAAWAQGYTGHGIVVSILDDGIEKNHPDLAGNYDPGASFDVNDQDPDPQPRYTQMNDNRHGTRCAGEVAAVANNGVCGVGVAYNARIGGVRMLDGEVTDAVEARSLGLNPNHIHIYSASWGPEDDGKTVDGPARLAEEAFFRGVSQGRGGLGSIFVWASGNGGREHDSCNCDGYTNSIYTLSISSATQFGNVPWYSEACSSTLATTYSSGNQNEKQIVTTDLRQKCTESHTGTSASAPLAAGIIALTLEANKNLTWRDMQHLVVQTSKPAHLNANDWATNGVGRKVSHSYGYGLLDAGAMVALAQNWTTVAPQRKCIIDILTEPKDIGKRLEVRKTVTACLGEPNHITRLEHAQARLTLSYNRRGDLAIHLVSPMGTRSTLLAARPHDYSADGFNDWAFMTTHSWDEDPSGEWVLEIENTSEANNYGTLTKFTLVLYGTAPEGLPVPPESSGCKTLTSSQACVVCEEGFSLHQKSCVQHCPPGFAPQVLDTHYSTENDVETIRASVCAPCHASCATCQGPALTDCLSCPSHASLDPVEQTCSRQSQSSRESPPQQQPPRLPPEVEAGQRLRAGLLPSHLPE

With `N=C(N)Nc1ccc(OCCCOc2ccc(NC(=N)N)cc2)cc1` [compound 2a, 1,3-bis(4-guanidinophenoxy)propane], the “protection against anthrax toxicity (in words)” value in assay [1] (100 µM inhibitor, 2 h) is “unable to block anthrax toxicity”. The “inhibition of cell migration (in words)” value in assay [2] (100 µM, 24 h) was “inhibited migration”. For the same compound, in assay [2], the inhibition at 100 µM was ~40%.
For the compound `N=C(N)Nc1ccc(O[C@@H]2CCC[C@H](Oc3ccc(NC(=N)N)cc3)C2)cc1` [2b, cis-1,3-bis(4-guanidinophenoxy)cyclohexane], the “inhibition of cell migration (in words)” value in assay [2] (100 µM, 24 h) is recorded as “inhibited migration”. In addition, the inhibition at 100 µM in [2] is ~40%.
Turning to `N=C(N)Nc1ccc(Oc2cccc(Oc3ccc(NC(=N)N)cc3NC(=N)N)c2)c(NC(=N)N)c1` [compound 2f, 1,3-bis(2,4-diguanidinophenoxy)benzene], the “protection against anthrax toxicity (in words)” value in assay [1] (10 µM inhibitor, 2 h) is reported as “almost complete protection; also recorded: complete inhibition of anthrax toxicity”; in [1] (100 µM inhibitor, 2 h) it was “excellent protection”; in assay [1] (setting [6]) it was “highly efficient protection”. Further, the “protection against Pseudomonas exotoxin A (in words)” value in [3] (setting [6]) was “good protection”. Also, the “inhibition of furin in vitro (in words)” value on Soluble human furin was “micromolar potency”. For the same compound, the “inhibition of intracellular (TGN) furin, SEAP release (in words)” value (“inhibition of intracellular (TGN) furin” below) in [4] is reported as “only slightly inhibited”. For the same compound, the inhibition at 100 µM in assay [2] is 20 to 25%.
As to `N=C(N)Nc1ccc(Oc2cccc(Oc3ccc(NC(=N)N)cc3)c2)cc1` [compound 2c, 1,3-bis(4-guanidinophenoxy)benzene], the “inhibition of cell migration (in words)” value in assay [2] (100 µM, 24 h) was “the most potent inhibitor; also recorded: inhibited migration; also recorded: completely inhibited cell mobility”.
On to `N=C(N)Nc1ccc(O[C@@H]2CCC[C@H](Oc3ccc(NC(=N)N)cc3NC(=N)N)C2)c(NC(=N)N)c1` [2e, cis-1,3-bis(2,4-diguanidinophenoxy)cyclohexane], for which the “protection against anthrax toxicity (in words)” value in assay [1] (100 µM inhibitor, 2 h) is “excellent protection”. Also, the “protection against Pseudomonas exotoxin A (in words)” value in assay [3] (setting [6]) was “good protection”. Further, in the assay on PC1/3, the “inhibition of PC1/3 (in words)” value was “no inhibition detected” and the “inhibition of PC1/3” value came to 38%. Besides, in assay [2], the inhibition at 100 µM was in the range of 20 to 25%.
On to `N=C(N)Nc1ccc(OC2CC(Oc3ccc(NC(=N)N)cc3)C(NC(=N)N)CC2NC(=N)N)cc1` (centres unmarked) [compound 1g, 1,1'-(4,6-bis(4-guanidinophenoxy)cyclohexane-1,3-diyl)diguanidine], for which the “protection against anthrax toxicity (in words)” value in [1] (10 µM inhibitor, 2 h) is listed as “complete inhibition of anthrax toxicity”; in [1] (setting [6]) it was “efficiently protected cells against anthrax; also recorded: potently prevented anthrax toxicity”. In assay [3] (setting [6]), the “protection against Pseudomonas exotoxin A (in words)” value was “only moderate protection; also recorded: modest effect”. Also, the “inhibition of intracellular (TGN) furin” value in assay [4] is “unable to inhibit”. Moreover, the “cross-inhibition of PACE4 (in words)” value in the assay with PACE4 is “substantial cross-inhibition”. In addition, the “potency against furin in vitro (in words)” value on furin is on record as “nanomolar potency”. In addition, the “cross-inhibition of PC5 (in words)” value in the assay with PC5 is “substantial cross-inhibition”. Further, the “inhibition of cell migration (in words)” value in assay [2] (100 µM, 24 h) is reported as “did not inhibit cell migration; also recorded: unable to inhibit”.
Consider naphthofluorescein disodium salt [B3], for which the “cell mobility and invasiveness of HT1080 cells (in words)” value in assay [5] is “prevented cell mobility and invasiveness”.
In the case of dec-RVKR-CMK, in the assay on skin tumor, the “skin tumor progression (in words)” value is on record as “decreases skin tumor progression”.
As for `N=C(N)Nc1ccc(OC2CC(Oc3ccc(NC(=N)N)cc3NC(=N)N)C(NC(=N)N)CC2NC(=N)N)cc1` (centres unmarked) [compound 1b, 1,1'-(4-((2,4-diguanidino-5-(4-guanidinophenoxy)cyclohexyl)oxy)-1,3-phenylene)diguanidine], the “protection against anthrax toxicity (in words)” value was “complete inhibition of anthrax toxicity” in assay [1] (10 µM inhibitor, 2 h); “protect cells against Bacillus anthracis (anthrax); also recorded: capable of blocking both Pseudomonas and anthrax toxemia at low doses” in [1] (setting [6]). Further, the “protection against Pseudomonas exotoxin A (in words)” value in assay [3] (10 µM inhibitor, 20–24 h) is “completely prevent Pseudomonas toxin cytotoxicity”; in assay [3] (setting [6]) it was “protect cells against Bacillus anthracis (anthrax) and Pseudomonas aeruginosa intoxication; also recorded: capable of blocking both Pseudomonas and anthrax toxemia at low doses”. Besides, the “inhibition of intracellular (TGN) furin” value in assay [4] is recorded as “block release of a Golgi reporter; also recorded: able to inhibit intracellular furin; also recorded: able to inhibit TGN furin”. In addition, the “potency against furin in vitro (in words)” value at furin is “nanomolar potency”. For the same compound, in assay [2] (100 µM, 24 h), the “inhibition of cell migration (in words)” value was “retard tumor cell migration; also recorded: good inhibitors of cell migration; also recorded: inhibited cell migration”. Besides, the inhibition at 100 µM in assay [2] came to 35%.
In the case of `N=C(N)Nc1ccc(OCCCOc2ccc(NC(=N)N)cc2NC(=N)N)c(NC(=N)N)c1` [2d, 1,3-bis(2,4-diguanidinophenoxy)propane], the “protection against anthrax toxicity (in words)” value in assay [1] (100 µM inhibitor, 2 h) is listed as “excellent protection”. Also, the “protection against Pseudomonas exotoxin A (in words)” value in assay [3] (setting [6]) was “good protection”. In the assay on PC1/3, the “inhibition of PC1/3 (in words)” value is given as “no inhibition detected” and the “inhibition of PC1/3” value turned out to be 51%. Also, the “inhibition of HT1080 cell migration” value in [2] (100 µM, 24 h) is given as “around 40%”.
